Results from US4971965A, “Antibiotics TAN-1057” (Takeda Chemical Industries, Ltd., priority 1988, dated 1990).
Values after ≈ are worked out from the molar mass of the structure shown. Counter-ions that a name gives are not always drawn.

How the values were obtained:
[1] = test system: Staphylococcus aureus N176-6; assay: Antibacterial activity against clinically isolated S. aureus (agar dilution MIC, Table 2); type: cell-based
Procedure: (§1) DMPPC: Methicillin, KM: Kanamycin, GM: Gentamycin, EM: Erythromycin (Note
(§2) Determined by the agar dilution method. Medium: Mueller Hinton medium
(§3) (Difco, USA) Inoculum Size: 10^6 CFU/ml, 37° C.

[2] = test system: Staphylococcus aureus N121; assay: as above; type: cell-based
Procedure: as §1, §2, §3

Staphylococcus aureus C3 = assay: as above; type: cell-based
Procedure: as §1, §2, §3

[3] = test system: Staphylococcus aureus TS-65; assay: as above; type: cell-based
Procedure: as §1, §2, §3

[4] = test system: Staphylococcus aureus N176-3; assay: as above; type: cell-based
Procedure: as §1, §2, §3

[5] = test system: Staphylococcus aureus N262; assay: as above; type: cell-based
Procedure: as §1, §2, §3

[6] = test system: Staphylococcus aureus N326; assay: as above; type: cell-based
Procedure: as §1, §2, §3

[7] = test system: Staphylococcus aureus N176; assay: as above; type: cell-based
Procedure: as §1, §2, §3

[8] = test system: Staphylococcus aureus N51; assay: as above; type: cell-based
Procedure: as §1, §2, §3

[9] = test system: Staphylococcus aureus N247; assay: as above; type: cell-based
Procedure: as §1, §2, §3

[10] = test system: Staphylococcus aureus N237; assay: as above; type: cell-based
Procedure: as §1, §2, §3

Staphylococcus aureus C4 = assay: as above; type: cell-based
Procedure: as §1, §2, §3

[11] = test system: Staphylococcus aureus C10; assay: as above; type: cell-based
Procedure: as §1, §2, §3

[12] = test system: Staphylococcus aureus N235; assay: as above; type: cell-based
Procedure: as §1, §2, §3

[13] = test system: Staphylococcus aureus FDA 209P; assay: as above; type: cell-based
Procedure: as §1, §2, §3

[14] = test system: Staphylococcus aureus N83; assay: as above; type: cell-based
Procedure: as §1, §2, §3

[15] = test system: Staphylococcus aureus N129; assay: as above; type: cell-based
Procedure: as §1, §2, §3

[16] = test system: Staphylococcus aureus N247-16; assay: as above; type: cell-based
Procedure: as §1, §2, §3

[17] = test system: Staphylococcus aureus N91; assay: as above; type: cell-based
Procedure: as §1, §2, §3

[18] = test system: Staphylococcus aureus TST-75; assay: as above; type: cell-based
Procedure: as §1, §2, §3

Staphylococcus aureus C7 = assay: as above; type: cell-based
Procedure: as §1, §2, §3

[19] = test system: Staphylococcus aureus N64; assay: as above; type: cell-based
Procedure: as §1, §2, §3

[20] = test system: Staphylococcus aureus N267; assay: as above; type: cell-based
Procedure: as §1, §2, §3

[21] = test system: Staphylococcus aureus N28; assay: as above; type: cell-based
Procedure: as §1, §2, §3

[22] = test system: Staphylococcus aureus N62; assay: as above; type: cell-based
Procedure: as §1, §2, §3

Staphylococcus aureus N8 = assay: as above; type: cell-based
Procedure: as §1, §2, §3

[23] = test system: Staphylococcus aureus N247-21; assay: as above; type: cell-based
Procedure: as §1, §2, §3

Acidity or basicity = type: physicochemical
Solubility = type: physicochemical

Q: Which MIC ([1]; Staphylococcus aureus, N1766) does the source give for `CC[C@H]1OC(=O)[C@H](C)[C@@H](O[C@H]2C[C@@](C)(OC)[C@@H](O)[C@H](C)O2)[C@H](C)[C@@H](O[C@@H]2O[C@H](C)C[C@H](N(C)C)[C@H]2O)[C@](C)(O)C[C@@H](C)C(=O)[C@H](C)[C@@H](O)[C@]1(C)O` [EM, Erythromycin] here?
A: The MIC was > 100 mg/L.

Q: And the MIC ([2]; Staphylococcus aureus, N121)?
A: The MIC was 0.39 mg/L (≈ 0.531 µM).

Q: And the MIC (Staphylococcus aureus C3; Staphylococcus aureus, C3)?
A: Its MIC is > 100 mg/L.

Q: What about the MIC ([3]; Staphylococcus aureus, TS65) of the same compound?
A: Its MIC is > 100 mg/L.

Q: And the MIC ([4]; Staphylococcus aureus, N1763)?
A: The MIC was > 100 mg/L.

Q: What about the MIC ([5]; Staphylococcus aureus, N262) of the same compound?
A: The MIC was > 100 mg/L.

Q: And the MIC ([6]; Staphylococcus aureus, N326)?
A: The MIC was > 100 mg/L.

Q: What about the MIC ([7]; Staphylococcus aureus, N176) of the same compound?
A: The MIC was > 100 mg/L.

Q: What about the MIC ([8]; Staphylococcus aureus, N51) of the same compound?
A: Its MIC is 0.39 mg/L (≈ 0.531 µM).

Q: And the MIC ([9]; Staphylococcus aureus, N247)?
A: The MIC was 6.25 mg/L (≈ 8.52 µM).

Q: What about the MIC ([10]; Staphylococcus aureus, N237) of the same compound?
A: The MIC was > 100 mg/L.

Q: And the MIC (Staphylococcus aureus C4; Staphylococcus aureus, C4)?
A: Its MIC is 0.39 mg/L (≈ 0.531 µM).

Q: And the MIC ([11]; Staphylococcus aureus, C10)?
A: Its MIC is > 100 mg/L.

Q: What about the MIC ([12]; Staphylococcus aureus, N235) of the same compound?
A: Its MIC is > 100 mg/L.

Q: What about the MIC ([13]; Staphylococcus aureus, FDA209P) of the same compound?
A: Its MIC is 0.39 mg/L (≈ 0.531 µM).

Q: And the MIC ([14]; Staphylococcus aureus, N83)?
A: Its MIC is > 100 mg/L.

Q: What about the MIC ([15]; Staphylococcus aureus, N129) of the same compound?
A: Its MIC is 0.39 mg/L (≈ 0.531 µM).

Q: And the MIC ([16]; Staphylococcus aureus, N24716)?
A: The MIC was 3.13 mg/L (≈ 4.26 µM).

Q: What about the MIC ([17]; Staphylococcus aureus, N91) of the same compound?
A: The MIC was 0.39 mg/L (≈ 0.531 µM).

Q: What about the MIC ([18]; Staphylococcus aureus, TST75) of the same compound?
A: The MIC was > 100 mg/L.

Q: What about the MIC (Staphylococcus aureus C7; Staphylococcus aureus, C7) of the same compound?
A: The MIC was 12.5 mg/L (≈ 17 µM).

Q: And the MIC ([19]; Staphylococcus aureus, N64)?
A: The MIC was > 100 mg/L.

Q: What about the MIC ([20]; Staphylococcus aureus, N267) of the same compound?
A: Its MIC is > 100 mg/L.

Q: What about the MIC ([21]; Staphylococcus aureus, N28) of the same compound?
A: The MIC was > 100 mg/L.

Q: What about the MIC ([22]; Staphylococcus aureus, N62) of the same compound?
A: The MIC was > 100 mg/L.

Q: And the MIC (Staphylococcus aureus N8; Staphylococcus aureus, N8)?
A: The MIC was > 100 mg/L.

Q: And the MIC ([23]; Staphylococcus aureus, N24721)?
A: The MIC was 6.25 mg/L (≈ 8.52 µM).

Q: With Gentamycin [GM] as the compound, how does the MIC ([1]; strain N176-6, agar dilution, Mueller Hinton medium, 10^6 CFU/ml) read?
A: The MIC was 0.39 mg/L.

Q: What about the MIC ([2]; strain N121, agar dilution, Mueller Hinton medium, 10^6 CFU/ml) of the same compound?
A: The MIC was > 100 mg/L.

Q: What about the MIC (Staphylococcus aureus C3; strain C3, agar dilution, Mueller Hinton medium, 10^6 CFU/ml) of the same compound?
A: Its MIC is 100 mg/L.

Q: And the MIC ([3]; strain TS-65, agar dilution, Mueller Hinton medium, 10^6 CFU/ml)?
A: Its MIC is 100 mg/L.

Q: And the MIC ([4]; strain N176-3, agar dilution, Mueller Hinton medium, 10^6 CFU/ml)?
A: The MIC was 0.39 mg/L.

Q: What about the MIC ([5]; strain N262, agar dilution, Mueller Hinton medium, 10^6 CFU/ml) of the same compound?
A: Its MIC is 50 mg/L.

Q: What about the MIC ([6]; strain N326, agar dilution, Mueller Hinton medium, 10^6 CFU/ml) of the same compound?
A: Its MIC is > 100 mg/L.

Q: And the MIC ([7]; strain N176, agar dilution, Mueller Hinton medium, 10^6 CFU/ml)?
A: The MIC was 0.39 mg/L.

Q: And the MIC ([8]; strain N51, agar dilution, Mueller Hinton medium, 10^6 CFU/ml)?
A: Its MIC is 0.39 mg/L.

Q: What about the MIC ([9]; strain N247, agar dilution, Mueller Hinton medium, 10^6 CFU/ml) of the same compound?
A: The MIC was 50 mg/L.

Q: What about the MIC ([10]; strain N237, agar dilution, Mueller Hinton medium, 10^6 CFU/ml) of the same compound?
A: The MIC was > 100 mg/L.

Q: And the MIC (Staphylococcus aureus C4; strain C4, agar dilution, Mueller Hinton medium, 10^6 CFU/ml)?
A: Its MIC is 50 mg/L.

Q: And the MIC ([11]; strain C10, agar dilution, Mueller Hinton medium, 10^6 CFU/ml)?
A: Its MIC is > 100 mg/L.

Q: And the MIC ([12]; strain N235, agar dilution, Mueller Hinton medium, 10^6 CFU/ml)?
A: The MIC was > 100 mg/L.

Q: And the MIC ([13]; strain FDA 209P, agar dilution, Mueller Hinton medium, 10^6 CFU/ml)?
A: Its MIC is ≤ 0.20 mg/L.

Q: And the MIC ([14]; strain N83, agar dilution, Mueller Hinton medium, 10^6 CFU/ml)?
A: The MIC was ≤ 0.20 mg/L.

Q: And the MIC ([15]; strain N129, agar dilution, Mueller Hinton medium, 10^6 CFU/ml)?
A: The MIC was 50 mg/L.

Q: And the MIC ([16]; strain N247-16, agar dilution, Mueller Hinton medium, 10^6 CFU/ml)?
A: Its MIC is 100 mg/L.

Q: And the MIC ([17]; strain N91, agar dilution, Mueller Hinton medium, 10^6 CFU/ml)?
A: The MIC was 0.39 mg/L.

Q: And the MIC ([18]; strain TST-75, agar dilution, Mueller Hinton medium, 10^6 CFU/ml)?
A: The MIC was > 100 mg/L.

Q: What about the MIC (Staphylococcus aureus C7; strain C7, agar dilution, Mueller Hinton medium, 10^6 CFU/ml) of the same compound?
A: Its MIC is > 100 mg/L.

Q: And the MIC ([19]; strain N64, agar dilution, Mueller Hinton medium, 10^6 CFU/ml)?
A: Its MIC is 0.78 mg/L.

Q: What about the MIC ([20]; strain N267, agar dilution, Mueller Hinton medium, 10^6 CFU/ml) of the same compound?
A: Its MIC is 100 mg/L.

Q: What about the MIC ([21]; strain N28, agar dilution, Mueller Hinton medium, 10^6 CFU/ml) of the same compound?
A: Its MIC is 0.39 mg/L.

Q: And the MIC ([22]; strain N62, agar dilution, Mueller Hinton medium, 10^6 CFU/ml)?
A: The MIC was 3.13 mg/L.

Q: What about the MIC (Staphylococcus aureus N8; strain N8, agar dilution, Mueller Hinton medium, 10^6 CFU/ml) of the same compound?
A: The MIC was ≤ 0.20 mg/L.

Q: What about the MIC ([23]; strain N247-21, agar dilution, Mueller Hinton medium, 10^6 CFU/ml) of the same compound?
A: The MIC was 50 mg/L.

Q: For `CN1C(=O)C[C@H](CCCNC(=N)N)NC(=O)[C@H]1CNC(=N)NC(N)=O` [TAN-1057C dihydrochloride], which Acidity or basicity (Acidity or basicity) is on record?
A: The Acidity or basicity was “neutral”.

Q: What about the Solubility (Solubility; acetone) of the same compound?
A: The Solubility was “Sparingly soluble”.

Q: What about the Solubility (Solubility; diethyl ether) of the same compound?
A: Its Solubility is “Sparingly soluble”.

Q: And the Solubility (Solubility; dimethylsulfoxide)?
A: Its Solubility is “Soluble”.

Q: And the Solubility (Solubility; ethyl acetate)?
A: The Solubility was “Sparingly soluble”.

Q: And the Solubility (Solubility; methanol)?
A: Its Solubility is “Soluble”.

Q: What about the Solubility (Solubility; water) of the same compound?
A: Its Solubility is “Readily soluble”.
